These results are taken from ChEMBL document CHEMBL1201862, “PubChem BioAssay data set” (2004).

Some test systems named below: 786-0; CCRF-CEM; DU-145; EKVX; HCC 2998; HCT-15; K562; KM12; MDA-MB-435; NCI-H23; NCI-H460; OVCAR-4; OVCAR-5; OVCAR-8; RPMI-8226; SF-295; SK-MEL-5; SN12C; TK-10; SK-MEL-2.
Assay in all cases: NCI-60 cell line screen, 48 h

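Interpolation was linear, between the two tested concentrations surrounding the appropriate level; five concentrations were tested over 48 hours in 96-well plates. GI50 = concentration required for 50% inhibition of growth.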 The source made the active and inactive calls. Rule as the data show it: active = GI50 up to about 1.1 µM and inactive = higher.

Regarding `Cc1ccc(-c2nc(-c3cnccn3)n(C3OC(CO)C(O)C(O)C3O)n2)cc1` (stereo not given), the GI50 is > 100 µM (inactive) in the assay on 786-0; > 100 µM (inactive) in the assay with CCRF-CEM; > 100 µM (inactive) in the assay with DU-145; > 100 µM (inactive) with EKVX; > 100 µM (inactive) in the assay with HCC 2998; above 100 µM with HCT-15. In addition, the GI50 in the assay with K562, in the assay on KM12, in the assay with MDA-MB-435, in the assay with NCI-H23, in the assay on NCI-H460 and in the assay with OVCAR-4 was > 100 µM (inactive) throughout. The GI50 in the assay with OVCAR-5, with OVCAR-8, in the assay on RPMI-8226, with SF-295, in the assay with SK-MEL-5 and with SN12C was > 100 µM (inactive) each time. Also, the GI50 in the assay with TK-10 is > 100 µM (inactive).
As for `COC(=O)c1ccccc1/C=C1\Cc2ccc3c(c2C1=O)CCC3`, the GI50 with 786-0 was > 100 µM (inactive); in the assay with CCRF-CEM, > 100 µM (inactive); in the assay on DU-145 it was > 100 µM (inactive); in the assay on EKVX, > 100 µM (inactive); with HCC 2998, > 100 µM (inactive); with HCT-15, above 100 µM. The GI50 with K562, in the assay on KM12, in the assay with MDA-MB-435, in the assay on NCI-H23, in the assay with NCI-H460 and in the assay on OVCAR-4 was > 100 µM (inactive) in each case. Besides, the GI50 with OVCAR-5, with OVCAR-8, in the assay with RPMI-8226, in the assay with SF-295, with SK-MEL-5 and with SN12C was > 100 µM (inactive) in each case. Also, the GI50 in the assay on TK-10 is > 100 µM (inactive).
In the case of `Cn1cco/c1=N/c1ccc(Cl)c(Cl)c1`, the GI50 with 786-0 is > 10 µM (inactive); with CCRF-CEM, > 10 µM (inactive); with DU-145, > 10 µM (inactive); with EKVX it was > 10 µM (inactive); in the assay with HCC 2998, > 10 µM (inactive); in the assay on HCT-15, above 10 µM. Further, the GI50 with K562, in the assay on KM12, in the assay with MDA-MB-435, in the assay with NCI-H23, in the assay with NCI-H460 and with OVCAR-4 was > 10 µM (inactive) in each case. In addition, the GI50 in the assay on OVCAR-5, in the assay on OVCAR-8, with RPMI-8226, with SF-295, in the assay with SK-MEL-5 and with SN12C was > 10 µM (inactive) throughout. Further, the GI50 in the assay on TK-10 is > 10 µM (inactive).
As to `C#CCN(CC#C)C(=O)C(=O)c1c[nH]c2ccc(OC)cc12`, the GI50 in the assay on 786-0 was 16.6 µM (inactive); with CCRF-CEM, 19.7 µM (inactive); with DU-145, 39.1 µM (inactive); in the assay on EKVX it was 32.4 µM (inactive); in the assay on HCC 2998 it was 16.9 µM (inactive); with HCT-15 it was 15.5 µM. Moreover, the GI50 in the assay with K562 was 18.6 µM (inactive); with KM12, 14 µM (inactive); with MDA-MB-435 it was 18.5 µM (inactive); in the assay on NCI-H23, 22.4 µM (inactive); in the assay with NCI-H460 it was 15 µM (inactive); with OVCAR-4, > 10 µM (inactive). Moreover, the GI50 in the assay with OVCAR-5 was 17.4 µM (inactive); in the assay on OVCAR-8, 22 µM (inactive); in the assay with RPMI-8226, 10.6 µM (inactive); with SF-295, 17.5 µM (inactive); in the assay with SK-MEL-5, 15.8 µM (inactive); in the assay with SN12C, 15.3 µM (inactive). For the same compound, in the assay on TK-10, the GI50 was 14.5 µM (inactive).
On to `C=CCCC1CCCNC1=S` (stereo not given), for which the GI50 with 786-0 is > 100 µM (inactive); in the assay with DU-145 it was > 100 µM (inactive); in the assay on EKVX, > 100 µM (inactive); with HCC 2998, > 100 µM (inactive); in the assay with HCT-15 it was above 100 µM; in the assay with K562, > 100 µM (inactive). For the same compound, the GI50 in the assay on MDA-MB-435, with NCI-H23, with NCI-H460, in the assay with OVCAR-4, with OVCAR-5 and with OVCAR-8 was > 100 µM (inactive) in each case. The GI50 in the assay on RPMI-8226, with SF-295, with SK-MEL-2, with SK-MEL-5, in the assay with SN12C and with TK-10 was > 100 µM (inactive) in each case.
For the compound `CC(=O)NC1C(OCc2ccccc2)OC(CO)C(O)C1OCC(=O)N1CCCC1C(=O)N[C@@H](CCC(=O)NCCCCNc1c2ccccc2nc2cccc([N+](=O)[O-])c12)C(N)=O` (stereo not given in full), the GI50 in the assay with 786-0 was 46.1 µM (inactive); in the assay with DU-145 it was 31.8 µM (inactive); in the assay with EKVX, 43.3 µM (inactive); with HCC 2998, 16.1 µM (inactive); in the assay with HCT-15, 42.8 µM; in the assay with K562, 26.4 µM (inactive). Besides, the GI50 was 31.3 µM (inactive) with KM12; 18 µM (inactive) in the assay on MDA-MB-435; 15.7 µM (inactive) with NCI-H23; 21 µM (inactive) with NCI-H460; 40.7 µM (inactive) in the assay with OVCAR-4; 25.8 µM (inactive) in the assay on OVCAR-5. Further, the GI50 in the assay with OVCAR-8 is 31 µM (inactive); in the assay on RPMI-8226, 2.64 µM (inactive); in the assay on SF-295, 53.8 µM (inactive); in the assay on SK-MEL-2, 15.4 µM (inactive); in the assay with SN12C, 23.7 µM (inactive); with TK-10 it was 73.8 µM (inactive).
Turning to `Clc1ccc(NCc2nnc(COc3ccc(OCc4nnc(CNc5ccc(Cl)cc5)o4)c(Cl)c3)o2)cc1`, the GI50 was > 100 µM (inactive) in the assay on 786-0; 11.2 µM (inactive) in the assay with CCRF-CEM; > 100 µM (inactive) in the assay on DU-145; 22.8 µM (inactive) in the assay on EKVX; > 100 µM (inactive) in the assay on HCC 2998; 43.6 µM in the assay with HCT-15. The GI50 in the assay on KM12 was 26.9 µM (inactive); in the assay on MDA-MB-435, 18.5 µM (inactive); in the assay with NCI-H23, 44 µM (inactive); in the assay on NCI-H460 it was 42.6 µM (inactive); in the assay with OVCAR-5, > 100 µM (inactive); in the assay with OVCAR-8, 62.7 µM (inactive). For the same compound, the GI50 in the assay on RPMI-8226 is 9.51 µM (inactive); in the assay with SF-295, 20.7 µM (inactive); in the assay on SK-MEL-2, 14 µM (inactive); with SK-MEL-5, 5.7 µM (inactive); in the assay with SN12C, 43.5 µM (inactive); in the assay on TK-10, 56.9 µM (inactive).
With `CSCSSC`, the GI50 was > 100 µM (inactive) in the assay on 786-0; 40.6 µM (inactive) in the assay with CCRF-CEM; > 100 µM (inactive) in the assay on DU-145; > 100 µM (inactive) in the assay with EKVX; > 100 µM (inactive) with HCC 2998; 95.3 µM (inactive) with K562. For the same compound, the GI50 in the assay on KM12 is > 57.3 µM (inactive); in the assay on MDA-MB-435, > 78 µM (inactive); in the assay with NCI-H23, > 83 µM (inactive); with NCI-H460, > 100 µM (inactive); in the assay on OVCAR-5, > 100 µM (inactive); with OVCAR-8 it was > 100 µM (inactive). Besides, the GI50 in the assay on RPMI-8226 was 56.5 µM (inactive); with SF-295, > 100 µM (inactive); in the assay on SK-MEL-2, > 35.5 µM (inactive); in the assay with SK-MEL-5, > 100 µM (inactive); in the assay with SN12C, > 100 µM (inactive); with TK-10, > 100 µM (inactive).
Take `O=C1C(c2c(O)[nH]c3ccc(F)cc23)=Nc2ccccc21`: the GI50 is 4.85 µM (inactive) in the assay on 786-0; 28 µM (inactive) in the assay with CCRF-CEM; > 100 µM (inactive) with DU-145; > 100 µM (inactive) in the assay on EKVX; > 100 µM (inactive) with HCC 2998; above 100 µM in the assay on HCT-15. Besides, the GI50 was 44.2 µM (inactive) in the assay on K562; > 100 µM (inactive) in the assay on KM12; > 100 µM (inactive) in the assay on MDA-MB-435; 73.1 µM (inactive) in the assay on NCI-H23; > 100 µM (inactive) with NCI-H460; > 100 µM (inactive) in the assay on OVCAR-5. In addition, the GI50 was 8.13 µM (inactive) with OVCAR-8; > 100 µM (inactive) with RPMI-8226; 27.4 µM (inactive) in the assay on SF-295; 14.5 µM (inactive) in the assay with SK-MEL-2; > 100 µM (inactive) in the assay with SK-MEL-5; > 100 µM (inactive) in the assay on SN12C. Besides, in the assay with TK-10, the GI50 is 22.1 µM (inactive).
For `O=c1c(Cl)c(Cl)cnn1CCCl`, the GI50 in the assay on 786-0 was 12.2 µM (inactive); with CCRF-CEM, 1.85 µM (inactive); with DU-145 it was 18.7 µM (inactive); in the assay on EKVX, 6.73 µM (inactive); in the assay on HCC 2998, 3.34 µM (inactive); in the assay with HCT-15, 2.64 µM. Besides, the GI50 with K562 was 2.06 µM (inactive); with KM12 it was 14.4 µM (inactive); in the assay on MDA-MB-435 it was 2.82 µM (inactive); in the assay on NCI-H23, 2.52 µM (inactive); with NCI-H460, 8.13 µM (inactive); in the assay with OVCAR-4, 1.57 µM (inactive). Besides, the GI50 in the assay with OVCAR-5 is 16.5 µM (inactive); with OVCAR-8, 3.44 µM (inactive); with RPMI-8226 it was 6.5 µM (inactive); in the assay with SF-295, 16 µM (inactive); with SK-MEL-5, 3.4 µM (inactive); in the assay with SN12C, 12.9 µM (inactive). Besides, the GI50 with TK-10 is 15.9 µM (inactive).
Regarding `N[C@@H]1CCN(c2c(F)cc3c(=O)c(C(=O)O)cn4c3c2Oc2c-4ccc3c2ccc2ccccc23)C1`, the GI50 in the assay on 786-0 is 0.412 µM (active); with DU-145, 3.81 µM (inactive); in the assay on EKVX, 0.857 µM (active); in the assay with HCC 2998, 0.494 µM (active); with HCT-15, 1.96 µM; in the assay on K562, 3.1 µM (inactive). The GI50 with KM12 was 4.38 µM (inactive); with MDA-MB-435, 3.03 µM (inactive); in the assay on NCI-H23, 3.1 µM (inactive); in the assay on NCI-H460, 0.396 µM (active); with OVCAR-4, 1.17 µM (inactive); in the assay with OVCAR-5, 2.86 µM (inactive). In addition, the GI50 in the assay with OVCAR-8 was 1.38 µM (inactive); in the assay on RPMI-8226, 0.396 µM (active); in the assay on SF-295 it was 1.92 µM (inactive); in the assay on SK-MEL-2, 7.8 µM (inactive); in the assay on SK-MEL-5, 1.44 µM (inactive); in the assay with SN12C, 3.37 µM (inactive). Besides, the GI50 in the assay on TK-10 was 2.38 µM (inactive).
